Data: US20230257396A1, “MACROCYCLES AND THEIR USE” (BLOSSOMHILL THERAPEUTICS, INC., priority 2020, published 2023)

What was measured:
Assay in all cases: KINOMEscan kinase binding assay (Eurofins/DiscoveRx), % Ctrl
Details in all cases: 1 μM
[1] = target: T1, kinases (Homo sapiens, UniProt P00519)
T1 construct: purchased Eurofins/DiscoveRx; host or cells: E. coli BL21-derived host (T7 phage display) for most kinases; HEK-293 for the rest
How it was run: (§1)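 Competition binding: DNA- or phage-tagged kinases (T7 phage in E. coli BL21, or HEK-293-expressed) with immobilized biotinylated ligand beads and test compound, 1 h at room temperature. Bead-bound kinase eluted and quantified by qPCR; % Ctrl = (compound − positive control)/(negative control − positive control) ×100 at a single compound concentration.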

[2] = target: T2, kinases (Homo sapiens, UniProt P00519, H396P)
T2 construct: purchased Eurofins/DiscoveRx; host or cells: E. coli BL21-derived host (T7 phage display) for most kinases; HEK-293 for the rest
How it was run: as §1

[3] = target: T3, kinases (Homo sapiens, UniProt P00519, M351T)
T3 construct: purchased Eurofins/DiscoveRx; host or cells: E. coli BL21-derived host (T7 phage display) for most kinases; HEK-293 for the rest
How it was run: as §1

[4] = target: T4, kinases (Homo sapiens, UniProt P00519, Y253F)
T4 construct: purchased Eurofins/DiscoveRx; host or cells: E. coli BL21-derived host (T7 phage display) for most kinases; HEK-293 for the rest
How it was run: as §1

[5] = target: T5, kinases (Homo sapiens, UniProt P00533, DEL752-759)
T5 construct: purchased Eurofins/DiscoveRx; host or cells: E. coli BL21-derived host (T7 phage display) for most kinases; HEK-293 for the rest
How it was run: as §1

[6] = target: T6, kinases (Homo sapiens, UniProt P00533, G719C)
T6 construct: purchased Eurofins/DiscoveRx; host or cells: E. coli BL21-derived host (T7 phage display) for most kinases; HEK-293 for the rest
How it was run: as §1

[7] = target: T7, kinases (Homo sapiens, UniProt P00533, T790M)
T7 construct: purchased Eurofins/DiscoveRx; host or cells: E. coli BL21-derived host (T7 phage display) for most kinases; HEK-293 for the rest
How it was run: as §1

[8] = target: T8, kinases (Homo sapiens, UniProt P07949)
T8 construct: purchased Eurofins/DiscoveRx; host or cells: E. coli BL21-derived host (T7 phage display) for most kinases; HEK-293 for the rest
T8 sequence (P07949 29-1114): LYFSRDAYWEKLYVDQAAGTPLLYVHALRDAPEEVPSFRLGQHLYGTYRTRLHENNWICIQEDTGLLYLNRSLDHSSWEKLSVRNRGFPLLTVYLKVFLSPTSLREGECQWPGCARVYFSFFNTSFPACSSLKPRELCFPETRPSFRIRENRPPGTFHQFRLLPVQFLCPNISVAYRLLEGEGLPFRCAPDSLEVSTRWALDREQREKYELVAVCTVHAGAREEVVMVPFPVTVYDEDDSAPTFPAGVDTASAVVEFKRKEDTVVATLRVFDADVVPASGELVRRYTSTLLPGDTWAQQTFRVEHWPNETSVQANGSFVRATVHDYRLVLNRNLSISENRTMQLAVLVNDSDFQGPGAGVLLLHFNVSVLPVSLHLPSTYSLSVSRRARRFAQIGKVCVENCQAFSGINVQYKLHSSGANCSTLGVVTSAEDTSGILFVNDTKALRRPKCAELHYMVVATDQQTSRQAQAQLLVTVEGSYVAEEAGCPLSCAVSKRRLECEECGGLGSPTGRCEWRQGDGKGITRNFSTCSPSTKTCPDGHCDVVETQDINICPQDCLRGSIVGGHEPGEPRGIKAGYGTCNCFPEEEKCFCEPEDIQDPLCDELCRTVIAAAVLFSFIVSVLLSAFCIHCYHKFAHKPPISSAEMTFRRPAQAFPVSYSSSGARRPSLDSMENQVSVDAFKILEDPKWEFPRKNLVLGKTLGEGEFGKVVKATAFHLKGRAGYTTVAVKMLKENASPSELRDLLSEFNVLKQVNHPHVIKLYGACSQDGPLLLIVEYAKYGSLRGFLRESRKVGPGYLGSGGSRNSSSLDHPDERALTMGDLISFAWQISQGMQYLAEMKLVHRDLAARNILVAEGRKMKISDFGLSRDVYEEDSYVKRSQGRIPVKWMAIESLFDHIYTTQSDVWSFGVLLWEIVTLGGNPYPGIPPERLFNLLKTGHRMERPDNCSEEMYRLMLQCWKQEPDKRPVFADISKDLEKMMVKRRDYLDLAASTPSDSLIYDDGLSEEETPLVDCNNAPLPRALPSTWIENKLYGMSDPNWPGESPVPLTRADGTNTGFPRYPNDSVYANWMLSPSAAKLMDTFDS
How it was run: as §1

[9] = target: T9, kinases (Homo sapiens, UniProt P07949, M918T)
T9 construct: purchased Eurofins/DiscoveRx; host or cells: E. coli BL21-derived host (T7 phage display) for most kinases; HEK-293 for the rest
T9 sequence (P07949 29-1114 M918T): as the sequence (P07949 29-1114) above, with M890T counted along it
How it was run: as §1

[10] = target: T10, kinases (Homo sapiens, UniProt P07949, V804L)
T10 construct: purchased Eurofins/DiscoveRx; host or cells: E. coli BL21-derived host (T7 phage display) for most kinases; HEK-293 for the rest
T10 sequence (P07949 29-1114 V804L): as the sequence (P07949 29-1114) above, with V776L counted along it
How it was run: as §1

[11] = target: T11, kinases (Homo sapiens, UniProt P09619)
T11 construct: purchased Eurofins/DiscoveRx; host or cells: E. coli BL21-derived host (T7 phage display) for most kinases; HEK-293 for the rest
T11 sequence (P09619 33-1106): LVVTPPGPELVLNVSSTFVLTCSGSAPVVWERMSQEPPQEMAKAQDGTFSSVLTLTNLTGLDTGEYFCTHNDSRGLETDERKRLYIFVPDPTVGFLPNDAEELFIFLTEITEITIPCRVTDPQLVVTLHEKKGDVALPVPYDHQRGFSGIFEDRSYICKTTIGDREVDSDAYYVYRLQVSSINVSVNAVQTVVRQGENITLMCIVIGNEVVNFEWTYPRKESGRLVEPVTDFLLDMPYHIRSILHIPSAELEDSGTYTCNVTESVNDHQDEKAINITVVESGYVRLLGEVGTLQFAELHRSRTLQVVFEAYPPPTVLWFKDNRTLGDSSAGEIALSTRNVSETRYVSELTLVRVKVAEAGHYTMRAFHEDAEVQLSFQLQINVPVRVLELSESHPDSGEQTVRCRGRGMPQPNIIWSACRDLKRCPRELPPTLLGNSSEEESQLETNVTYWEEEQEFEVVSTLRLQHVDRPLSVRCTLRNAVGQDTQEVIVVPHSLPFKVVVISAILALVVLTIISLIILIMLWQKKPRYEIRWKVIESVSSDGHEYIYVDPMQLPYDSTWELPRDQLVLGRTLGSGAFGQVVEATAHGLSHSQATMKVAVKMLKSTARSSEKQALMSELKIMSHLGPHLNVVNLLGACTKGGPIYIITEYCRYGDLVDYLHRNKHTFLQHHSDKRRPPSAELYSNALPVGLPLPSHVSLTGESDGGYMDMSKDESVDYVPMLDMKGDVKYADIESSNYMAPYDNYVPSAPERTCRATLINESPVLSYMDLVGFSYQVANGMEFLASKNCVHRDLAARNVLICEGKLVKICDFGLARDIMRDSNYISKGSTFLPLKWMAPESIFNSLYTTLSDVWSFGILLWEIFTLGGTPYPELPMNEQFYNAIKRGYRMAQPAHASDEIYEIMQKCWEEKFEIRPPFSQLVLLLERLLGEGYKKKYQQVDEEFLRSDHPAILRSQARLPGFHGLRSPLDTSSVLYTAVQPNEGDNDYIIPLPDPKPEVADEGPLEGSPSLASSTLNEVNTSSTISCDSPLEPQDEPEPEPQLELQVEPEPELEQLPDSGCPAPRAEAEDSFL
How it was run: as §1

[12] = target: T12, kinases (Homo sapiens, UniProt P10721, L576P)
T12 construct: purchased Eurofins/DiscoveRx; host or cells: E. coli BL21-derived host (T7 phage display) for most kinases; HEK-293 for the rest
T12 sequence (P10721 26-976 L576P): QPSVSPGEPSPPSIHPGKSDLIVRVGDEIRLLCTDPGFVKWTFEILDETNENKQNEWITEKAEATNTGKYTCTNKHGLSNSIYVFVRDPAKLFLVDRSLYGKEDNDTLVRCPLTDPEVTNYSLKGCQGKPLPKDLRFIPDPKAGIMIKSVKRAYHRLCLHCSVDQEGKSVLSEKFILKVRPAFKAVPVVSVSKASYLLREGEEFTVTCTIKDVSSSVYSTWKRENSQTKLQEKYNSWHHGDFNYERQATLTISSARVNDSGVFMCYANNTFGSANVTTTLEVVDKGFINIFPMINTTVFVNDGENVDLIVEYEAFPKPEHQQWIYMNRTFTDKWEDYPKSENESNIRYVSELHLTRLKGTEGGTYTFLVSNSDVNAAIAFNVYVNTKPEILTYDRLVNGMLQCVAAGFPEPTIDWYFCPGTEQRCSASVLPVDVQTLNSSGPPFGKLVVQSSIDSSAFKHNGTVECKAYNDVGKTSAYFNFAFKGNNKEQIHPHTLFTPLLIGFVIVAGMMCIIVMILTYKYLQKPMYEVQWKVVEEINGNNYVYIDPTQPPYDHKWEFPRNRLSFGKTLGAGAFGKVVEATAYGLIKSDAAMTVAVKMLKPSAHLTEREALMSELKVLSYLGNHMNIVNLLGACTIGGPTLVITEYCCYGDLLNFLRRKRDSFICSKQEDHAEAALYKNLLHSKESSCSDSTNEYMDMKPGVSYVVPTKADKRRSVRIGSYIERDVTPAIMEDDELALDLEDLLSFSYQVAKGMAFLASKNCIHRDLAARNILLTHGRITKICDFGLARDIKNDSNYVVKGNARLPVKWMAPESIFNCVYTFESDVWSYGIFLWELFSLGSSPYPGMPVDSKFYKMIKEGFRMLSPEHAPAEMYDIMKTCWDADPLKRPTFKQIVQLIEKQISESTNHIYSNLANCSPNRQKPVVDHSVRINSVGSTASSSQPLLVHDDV
How it was run: as §1

[13] = target: T13, kinases (Homo sapiens, UniProt P10721, V559D/V654A)
T13 construct: purchased Eurofins/DiscoveRx; host or cells: E. coli BL21-derived host (T7 phage display) for most kinases; HEK-293 for the rest
T13 sequence (P10721 26-976 V559D/V654A): as the sequence (P10721 26-976 L576P) above, with V534D, P551L, V629A counted along it
How it was run: as §1

[14] = target: T14, kinases (Homo sapiens, UniProt P36888)
T14 construct: purchased Eurofins/DiscoveRx; host or cells: E. coli BL21-derived host (T7 phage display) for most kinases; HEK-293 for the rest
T14 sequence (P36888 27-993): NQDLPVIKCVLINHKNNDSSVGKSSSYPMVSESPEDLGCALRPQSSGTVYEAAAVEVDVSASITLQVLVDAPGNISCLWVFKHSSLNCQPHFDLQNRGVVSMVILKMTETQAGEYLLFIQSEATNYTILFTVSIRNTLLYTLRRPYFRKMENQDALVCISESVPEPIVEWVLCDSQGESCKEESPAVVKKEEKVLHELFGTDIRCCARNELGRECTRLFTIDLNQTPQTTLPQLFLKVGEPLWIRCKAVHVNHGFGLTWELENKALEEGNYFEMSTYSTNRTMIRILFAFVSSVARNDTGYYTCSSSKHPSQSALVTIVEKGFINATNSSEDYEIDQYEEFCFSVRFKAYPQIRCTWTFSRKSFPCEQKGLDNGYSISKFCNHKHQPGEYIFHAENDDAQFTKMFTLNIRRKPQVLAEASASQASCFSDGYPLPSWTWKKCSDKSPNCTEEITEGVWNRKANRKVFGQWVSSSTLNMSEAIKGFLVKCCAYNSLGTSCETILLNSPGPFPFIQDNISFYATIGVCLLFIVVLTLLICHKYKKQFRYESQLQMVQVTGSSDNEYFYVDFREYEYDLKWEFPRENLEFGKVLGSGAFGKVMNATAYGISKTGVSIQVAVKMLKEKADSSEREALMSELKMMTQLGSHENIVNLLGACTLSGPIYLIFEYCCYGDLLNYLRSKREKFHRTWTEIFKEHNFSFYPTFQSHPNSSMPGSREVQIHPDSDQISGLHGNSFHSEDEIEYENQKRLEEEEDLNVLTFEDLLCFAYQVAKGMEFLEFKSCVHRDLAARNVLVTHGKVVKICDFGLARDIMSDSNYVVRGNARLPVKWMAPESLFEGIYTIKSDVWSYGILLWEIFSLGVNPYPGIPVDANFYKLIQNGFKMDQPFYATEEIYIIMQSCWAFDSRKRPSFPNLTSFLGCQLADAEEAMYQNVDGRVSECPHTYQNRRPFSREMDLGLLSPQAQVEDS
How it was run: as §1

Question: Which results are given for `Cc1cc2c([nH]1)/C=C1\C(=O)Nc3cnc(nc31)N(C)CCCOCCN(C)C2=O` [Ex.71, [17a(18)Z]-2,5,12-trimethyl-6,7,9,10,11,12-hexahydro-1H-13,15-(azenometheno)dipyrrolo[3,2-f:3′,4′-i][1,4,11,13]oxatriazacyclohexadecine-4,17(5H,16H)-dione]?
Answer: % Ctrl, ABL1-nonphosphorylated ([1]; ABL1-nonphosphorylated): 90 % Ctrl; % Ctrl, ABL1-phosphorylated ([1]; ABL1-phosphorylated): 93 % Ctrl; % Ctrl, ABL1(H396P)-nonphosphorylated ([2]; ABL1(H396P)-nonphosphorylated): 100 % Ctrl; % Ctrl, ABL1(H396P)-phosphorylated ([2]; ABL1(H396P)-phosphorylated): 98 % Ctrl; % Ctrl, ABL1(M351T)-phosphorylated ([3]; ABL1(M351T)-phosphorylated): 100 % Ctrl; % Ctrl, ABL1(Y253F)-phosphorylated ([4]; ABL1(Y253F)-phosphorylated): 91 % Ctrl; % Ctrl, EGFR(S752-I759del) ([5]; EGFR(S752-I759del)): 74 % Ctrl; % Ctrl, EGFR(G719C) ([6]; EGFR(G719C)): 71 % Ctrl; % Ctrl, EGFR(T790M) ([7]; EGFR(T790M)): 100 % Ctrl; % Ctrl, RET ([8]; RET): 96 % Ctrl; % Ctrl, RET(M918T) ([9]; RET(M918T)): 91 % Ctrl; % Ctrl, RET(V804L) ([10]; RET(V804L)): 95 % Ctrl; % Ctrl, PDGFRB ([11]; PDGFRB): 98 % Ctrl; % Ctrl, KIT(L576P) ([12]; KIT(L576P)): 100 % Ctrl; % Ctrl, KIT(V559D, V654A) ([13]; KIT(V559D, V654A)): 100 % Ctrl; % Ctrl, FLT3 ([14]; FLT3): 93 % Ctrl; % Ctrl, FLT3-autoinhibited ([14]; FLT3-autoinhibited): 100 % Ctrl

Question: What does the source list for `Cc1cc2c([nH]1)/C=C1\C(=O)Nc3cc(Cl)c(cc31)OCCO[C@@H](C(=O)N1CCN(C)CC1)CN(C)C2=O` [Ex. 138, [7R,16a(17)Z]-19-chloro-2,5-dimethyl-7-(4-methylpipearazine-1-carbonyl)-6,7,9,10-tetrahydro-1H-12,14-(ethanediylidene)dipyrrolo[3,2-i:3′,4′-l][1,4,7]dioxazacyclopentadecine-4,16(5H,15H)-dione]?
Answer: % Ctrl, ABL1-nonphosphorylated ([1]; target ABL1-nonphosphorylated): 79 % Ctrl; % Ctrl, ABL1-phosphorylated ([1]; target ABL1-phosphorylated): 100 % Ctrl; % Ctrl, ABL1(H396P)-nonphosphorylated ([2]; target ABL1(H396P)-nonphosphorylated): 69 % Ctrl; % Ctrl, ABL1(H396P)-phosphorylated ([2]; target ABL1(H396P)-phosphorylated): 82 % Ctrl; % Ctrl, ABL1(M351T)-phosphorylated ([3]; target ABL1(M351T)-phosphorylated): 71 % Ctrl; % Ctrl, ABL1(Y253F)-phosphorylated ([4]; target ABL1(Y253F)-phosphorylated): 91 % Ctrl; % Ctrl, EGFR(S752-I759del) ([5]; target EGFR(S752-I759del)): 92 % Ctrl; % Ctrl, EGFR(G719C) ([6]; target EGFR(G719C)): 100 % Ctrl; % Ctrl, EGFR(T790M) ([7]; target EGFR(T790M)): 94 % Ctrl; % Ctrl, RET ([8]; target RET): 63 % Ctrl; % Ctrl, RET(M918T) ([9]; target RET(M918T)): 72 % Ctrl; % Ctrl, RET(V804L) ([10]; target RET(V804L)): 83 % Ctrl; % Ctrl, PDGFRB ([11]; target PDGFRB): 95 % Ctrl; % Ctrl, KIT(L576P) ([12]; target KIT(L576P)): 69 % Ctrl; % Ctrl, KIT(V559D, V654A) ([13]; target KIT(V559D, V654A)): 62 % Ctrl; % Ctrl, FLT3-autoinhibited ([14]; target FLT3-autoinhibited): 76 % Ctrl; % Ctrl, FLT3 ([14]; target FLT3): 77 % Ctrl
